Legend:
[1] = Inhibition of [3H]KA binding to human iontropic glutamate receptors 5 and KA-2
[2] = Inhibition of [3H]KA binding to human iontropic glutamate receptors 6 and KA-2
[3] = Inhibition of [3H]KA binding to human iontropic glutamate receptors 5 and 6
[4] = biological target: Glutamate receptor ionotropic, kainate 2 (Homo sapiens, UniProt Q13002); test: Inhibition of [3H]KA binding to iontropic glutamate receptor 6
Glutamate receptor 2 = Glutamate receptor 2 (Homo sapiens, UniProt P42262); test: biochemical
Sequence of Glutamate receptor 2 (P42262 whole entry): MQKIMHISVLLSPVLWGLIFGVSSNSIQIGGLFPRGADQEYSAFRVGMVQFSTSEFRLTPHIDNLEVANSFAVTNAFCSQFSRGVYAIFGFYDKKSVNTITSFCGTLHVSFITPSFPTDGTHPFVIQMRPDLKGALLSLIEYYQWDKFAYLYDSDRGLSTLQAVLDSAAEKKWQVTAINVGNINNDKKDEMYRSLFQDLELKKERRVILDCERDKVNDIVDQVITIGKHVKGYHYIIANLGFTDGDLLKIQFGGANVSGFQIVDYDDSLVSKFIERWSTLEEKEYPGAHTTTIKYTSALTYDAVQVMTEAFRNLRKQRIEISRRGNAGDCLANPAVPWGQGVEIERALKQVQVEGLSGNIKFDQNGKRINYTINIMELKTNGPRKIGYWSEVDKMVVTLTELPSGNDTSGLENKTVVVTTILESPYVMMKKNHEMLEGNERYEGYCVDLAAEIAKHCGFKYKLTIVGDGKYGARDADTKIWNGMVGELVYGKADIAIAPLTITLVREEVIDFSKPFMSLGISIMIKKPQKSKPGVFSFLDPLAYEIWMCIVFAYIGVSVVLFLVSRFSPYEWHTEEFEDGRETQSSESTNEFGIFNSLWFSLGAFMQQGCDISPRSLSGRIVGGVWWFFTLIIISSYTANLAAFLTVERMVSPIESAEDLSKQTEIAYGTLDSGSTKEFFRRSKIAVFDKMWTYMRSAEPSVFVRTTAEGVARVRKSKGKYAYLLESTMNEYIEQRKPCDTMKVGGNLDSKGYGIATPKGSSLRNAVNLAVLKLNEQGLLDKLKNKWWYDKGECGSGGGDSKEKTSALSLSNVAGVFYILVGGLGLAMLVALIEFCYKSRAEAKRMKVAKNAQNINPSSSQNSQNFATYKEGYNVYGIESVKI
Description: Inhibition of [3H]-AMPA binding to human GluR2 receptors expressed in HEK 293 cells

[5] = biological target: Glutamate receptor ionotropic, kainate 1 (Homo sapiens, UniProt P39086)
Sequence of Glutamate receptor ionotropic, kainate 1 (P39086 whole entry): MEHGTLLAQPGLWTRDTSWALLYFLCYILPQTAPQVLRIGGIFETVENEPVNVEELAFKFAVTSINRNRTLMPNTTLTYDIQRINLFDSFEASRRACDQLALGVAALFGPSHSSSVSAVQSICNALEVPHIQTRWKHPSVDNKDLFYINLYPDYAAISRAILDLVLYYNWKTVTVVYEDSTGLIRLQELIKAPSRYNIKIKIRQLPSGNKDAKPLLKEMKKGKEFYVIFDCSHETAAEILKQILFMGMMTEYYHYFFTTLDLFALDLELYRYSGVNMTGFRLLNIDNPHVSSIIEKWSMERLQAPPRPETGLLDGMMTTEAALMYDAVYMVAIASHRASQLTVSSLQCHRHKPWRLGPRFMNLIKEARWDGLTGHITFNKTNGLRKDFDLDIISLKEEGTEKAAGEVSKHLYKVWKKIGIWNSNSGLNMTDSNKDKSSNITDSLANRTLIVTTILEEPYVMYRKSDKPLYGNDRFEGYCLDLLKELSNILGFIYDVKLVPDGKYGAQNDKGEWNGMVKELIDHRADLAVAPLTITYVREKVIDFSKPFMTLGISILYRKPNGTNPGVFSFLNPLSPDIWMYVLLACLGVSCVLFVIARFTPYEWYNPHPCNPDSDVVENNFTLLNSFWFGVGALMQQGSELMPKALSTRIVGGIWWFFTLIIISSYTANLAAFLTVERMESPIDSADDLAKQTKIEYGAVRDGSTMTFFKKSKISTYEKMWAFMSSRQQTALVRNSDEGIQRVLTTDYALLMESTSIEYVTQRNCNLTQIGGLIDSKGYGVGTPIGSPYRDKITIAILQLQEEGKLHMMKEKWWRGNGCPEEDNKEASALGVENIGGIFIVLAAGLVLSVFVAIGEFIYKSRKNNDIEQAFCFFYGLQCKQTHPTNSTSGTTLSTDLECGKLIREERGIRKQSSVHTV
Description: Inhibition of [3H]-KA binding to iontropic glutamate receptor 5

Sequence of Glutamate receptor ionotropic, kainate 2 (Q13002 whole entry): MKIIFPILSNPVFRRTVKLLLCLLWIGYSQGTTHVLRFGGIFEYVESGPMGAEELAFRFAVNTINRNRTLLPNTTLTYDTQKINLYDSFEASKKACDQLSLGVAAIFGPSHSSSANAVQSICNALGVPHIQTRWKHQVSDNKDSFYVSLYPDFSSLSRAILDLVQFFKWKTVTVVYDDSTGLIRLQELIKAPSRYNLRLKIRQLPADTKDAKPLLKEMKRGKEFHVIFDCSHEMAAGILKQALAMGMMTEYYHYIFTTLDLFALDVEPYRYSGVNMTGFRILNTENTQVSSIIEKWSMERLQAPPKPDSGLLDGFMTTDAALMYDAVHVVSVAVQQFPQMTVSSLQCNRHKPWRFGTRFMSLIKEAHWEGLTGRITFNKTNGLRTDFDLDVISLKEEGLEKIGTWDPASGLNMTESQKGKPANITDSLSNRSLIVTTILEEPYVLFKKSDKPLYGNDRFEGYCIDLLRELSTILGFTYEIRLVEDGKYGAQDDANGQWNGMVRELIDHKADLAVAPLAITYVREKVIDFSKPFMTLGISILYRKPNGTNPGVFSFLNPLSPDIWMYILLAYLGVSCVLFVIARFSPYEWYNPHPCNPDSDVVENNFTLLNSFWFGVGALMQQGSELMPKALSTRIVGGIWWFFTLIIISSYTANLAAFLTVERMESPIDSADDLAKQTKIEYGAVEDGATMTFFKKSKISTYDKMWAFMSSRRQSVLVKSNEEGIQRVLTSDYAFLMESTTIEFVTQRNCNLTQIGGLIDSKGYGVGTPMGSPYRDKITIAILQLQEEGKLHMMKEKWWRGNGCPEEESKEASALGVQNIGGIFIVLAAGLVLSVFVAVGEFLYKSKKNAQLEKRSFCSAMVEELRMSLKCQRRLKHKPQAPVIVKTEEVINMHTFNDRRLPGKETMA

Question: For `NS(=O)(=O)c1cccc2c1c([N+](=O)[O-])cc1nc(O)c(O)nc12` [NBQX], which Ki [1] is on record?
Answer: 26.6 µM

Question: And the Ki [2]?
Answer: 0.6 µM

Question: What about the Ki [3] of the same compound?
Answer: 6.12 µM

Question: Which results are given for `O=C(O)c1ccc(C[C@H]2CC[C@H]3CN[C@H](C(=O)O)C[C@H]3C2)cc1`?
Answer: Ki [1]: > 100 µM; Ki [2]: > 100 µM; Ki [4]: > 100 µM; Ki [3]: 10.2 µM; Ki (Glutamate receptor 2): > 100 µM

Question: Which Ki [1] does the source give for `O=C(O)[C@@H]1C[C@H]2C[C@@H](Oc3ccccc3-c3nn[nH]n3)CC[C@H]2CN1` here?
Answer: 7.89 µM

Question: And the Ki [5]?
Answer: 1.69 µM

Question: What about the Ki [2] of the same compound?
Answer: > 100 µM

Question: What about the Ki [4] of the same compound?
Answer: > 100 µM

Question: And the Ki [3]?
Answer: 1 µM

Question: What about the Ki (Glutamate receptor 2) of the same compound?
Answer: 8.26 µM

Question: Which results are given for `CC(C)COC(=O)[C@@H]1C[C@H]2C[C@@H](Oc3ccccc3-c3nn[nH]n3)CC[C@H]2CN1`?
Answer: Ki [1]: 60.9 µM; Ki [5]: 7.37 µM; Ki [2]: > 100 µM; Ki [4]: > 100 µM; Ki [3]: 5.98 µM; Ki (Glutamate receptor 2): > 100 µM

Question: Which Ki [1] does the source give for `O=C(O)[C@@H]1C[C@H]2C[C@@H](Nc3ccccc3-c3nn[nH]n3)CC[C@H]2CN1` here?
Answer: 9.86 µM

Question: What about the Ki [5] of the same compound?
Answer: 1.55 µM

Question: And the Ki [2]?
Answer: > 100 µM

Question: And the Ki [4]?
Answer: > 100 µM

Question: And the Ki [3]?
Answer: 1.37 µM

Question: What about the Ki (Glutamate receptor 2) of the same compound?
Answer: 5.51 µM

Question: Which Ki [1] does the source give for `O=C(O)[C@@H]1C[C@H]2C[C@@H](CCc3nn[nH]n3)CC[C@H]2CN1` [TEZAMPANEL ANHYDROUS] here?
Answer: 16.2 µM

Question: And the Ki [5]?
Answer: 4.16 µM

Question: And the Ki [2]?
Answer: > 100 µM

Question: And the Ki [4]?
Answer: > 100 µM

Question: And the Ki [3]?
Answer: 2.1 µM

Question: For `CCC(CC)COC(=O)[C@@H]1C[C@H]2C[C@@H](Nc3ccccc3-c3nn[nH]n3)CC[C@H]2CN1`, which Ki [1] is on record?
Answer: > 100 µM

Question: What about the Ki [5] of the same compound?
Answer: 31.8 µM

Question: And the Ki [2]?
Answer: > 100 µM

Question: What about the Ki [4] of the same compound?
Answer: > 100 µM

Question: And the Ki [3]?
Answer: 13.7 µM

Question: What about the Ki (Glutamate receptor 2) of the same compound?
Answer: > 100 µM
